What is called IC50 is the concentration that inhibits the measured activity by half. A low value points to inhibition by little substance. One may read the clearance as the volume of plasma or blood freed of the substance per unit of time. For orientation: AUC(0-t) means the area under the concentration-time curve up to a stated or last time point. High values mean more exposure, low ones less exposure. What is called Cmax is the maximum level reached in the sampled fluid or tissue. A word on the IC20: it is the concentration at which the effect reaches the 20% level. High values mean a need for much substance, low ones an effect from little substance.

In one data set the target is WT NRAS-BRAF complex (Homo sapiens (Human), UniProt P01111+P62937). In words: WT NRAS-BRAF with CYPA interaction assay (TR-FRET). The data set is classed as biochemical. The following applies: WT NRAS. The procedure:
(§1) In this example, TR-FRET was used to measure the compound or compound-CYPA dependent disruption of the KRAS G12V-BRAF complex to assess inhibition efficacy. The IC50 ratio between WT KRAS/HRAS/NRAS and KRAS G12V mutant was calculated as selective index, which indicated tolerability and safety profile. Disruption of WT KRAS/HRAS/NRAS-BRAF complex by compounds was detected respectively. In assay buffer containing 25 mM HEPES (PH-7.4,4-(2-hydroxyethyl)-1-piperazineethanesulfonic acid, Thermo, 15630080), 0.002% Tween20, 0.1% BSA, 100 mM NaCl, 5 mM MgCl2, 10 μM GMPPNP (Guanosine 5′-[β,γ-imido]triphosphate trisodium salt hydrate, Sigma, G0635), tagless CYPA and GMPPNP loaded 6His-RAS proteins, and GST-BRAF^RBD were mixed in a well of a 384-well assay plate at final concentrations of 50 nM, 6.25 nM and 1 nM, respectively. Compound was present in plate wells as a 16-point 3-fold dilution series starting at a final concentration of 10 μM and incubated for 3 hours. A mixture of MAb Anti-6His-XL665 (Cisbio, 61HISXLB) and Mab anti-GST-TB cryptate (Cisbio, 61GSTTLB) was then added at a final concentration of 6.67 nM and 0.21 nM, respectively, and the plate was incubated for an additional 1.5 hours. TR-FRET signal was read on a PHERstar FSX microplate reader (Ex320 nm, Em 665/615 nm). Compounds that facilitate disruption of the RAS-BRAF complex were identified as those eliciting a decrease in the TR-FRET ratio relative to DMSO control wells.
On the technique in general: Time-resolved FRET reads energy transfer from a long-lived donor to a nearby acceptor.

Data set [1] can be described thus: Single dose pharmacokinetics (PK) study in female BALB/c mice. The conditions noted are these: female, BALB/c, mouse, plasma, female BALB/c mice. Type of data set: in vivo, mouse. As to the method: The purpose of this study was to determine the pharmacokinetics of selected compounds following single intravenous bolus or oral gavage administration in female BALB/c mice. Briefly, two groups of female BALB/c mice (available from Shanghai Lingchang Biotechnology Co., Ltd) (N=3/group) were treated with a single dose of compound intravenously at 3 mg/kg (IV) or orally at 30 mg/kg (PO). Blood samples were collected at 5 min (only for IV), […], 30 min, 1 h, 2 h, 4 h, 7 h and 24 h post-dose. Blood samples were placed on ice until centrifugation to obtain plasma samples. The concentration of compound in plasma samples was determined using LC-MS/MS method. The pharmacokinetic parameters were calculated by non-compartmental analysis.

Another data set deals with KRAS G12V-BRAF complex (Homo sapiens (Human), UniProt P01116+P62937, G12V). In words: KRAS G12V-BRAF with CYPA interaction assay (TR-FRET, selectivity test, Example 132). Type of data set: biochemical. The procedure:
as §1

The target of the next data set is WT KRAS-BRAF complex (Homo sapiens (Human), UniProt P01116+P62937). Briefly: WT KRAS-BRAF with CYPA interaction assay (TR-FRET). The data set is classed as biochemical. The following applies: WT KRAS. The procedure:
as §1

In the next data set the target is WT HRAS-BRAF complex (Homo sapiens (Human), UniProt P01112+P62937). Briefly: WT HRAS-BRAF with CYPA interaction assay (TR-FRET). The data set is classed as biochemical. The following applies: WT HRAS. The procedure: as §1
Sequence of WT HRAS-BRAF complex (P01112 whole entry, looked up): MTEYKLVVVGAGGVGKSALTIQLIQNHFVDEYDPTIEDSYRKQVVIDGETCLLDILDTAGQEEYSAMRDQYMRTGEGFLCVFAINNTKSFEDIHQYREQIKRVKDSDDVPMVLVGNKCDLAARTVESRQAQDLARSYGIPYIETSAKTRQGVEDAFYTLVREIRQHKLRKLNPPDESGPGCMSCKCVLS
Sequence of WT HRAS-BRAF complex (P62937 whole entry, looked up): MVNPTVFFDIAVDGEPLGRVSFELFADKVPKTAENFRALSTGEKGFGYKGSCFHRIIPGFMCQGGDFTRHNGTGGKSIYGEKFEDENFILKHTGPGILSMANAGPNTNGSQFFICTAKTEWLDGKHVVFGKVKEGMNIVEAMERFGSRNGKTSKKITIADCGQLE
The subject of another data set is human hepatocytes. Briefly: Human hepatocyte stability assay. The conditions noted are these: 1 μM compound, human hepatocytes 1×10^6 cells/mL. The data set is classed as in vitro ADME. The procedure: The hepatocyte stability assay measures the rate of disappearance of a compound from incubations with cryopreserved suspension hepatocytes from human. Positive controls, including Midazolam, Raloxifene and Dextromethorphan, are included in every experiment. Incubations consist of 1 μM tested compound and suspension of human hepatocytes (1×10^6 cells/mL) in supplemented Williams' E Medium with 10% FBS and 0.5% Penicillin-streptomycin. The hepatocyte suspension was incubated with intermittent shaking 900 rpm at 37° C., in a 5% CO2 incubator. The reaction was stopped by adding methanol containing internal standard (2 μM Tolbutamide) at 2, 10, 20, 40, 60 and 120 minutes after compound addition, depletion of the parent compound was monitored by LC-MS/MS analysis.

The target of the next data set is hERG potassium channel (Homo sapiens (Human), UniProt Q12809). Briefly: hERG potassium channel assay (manual patch clamp, CHO cells). The data set is classed as cell-based. The following applies: 34° C., manual patch, CHO cells. The procedure: The purpose of the test was to screen compounds for the activity on hERG channels as a non-clinical cardiac safety evaluation.
Sequence of hERG potassium channel (Q12809 whole entry): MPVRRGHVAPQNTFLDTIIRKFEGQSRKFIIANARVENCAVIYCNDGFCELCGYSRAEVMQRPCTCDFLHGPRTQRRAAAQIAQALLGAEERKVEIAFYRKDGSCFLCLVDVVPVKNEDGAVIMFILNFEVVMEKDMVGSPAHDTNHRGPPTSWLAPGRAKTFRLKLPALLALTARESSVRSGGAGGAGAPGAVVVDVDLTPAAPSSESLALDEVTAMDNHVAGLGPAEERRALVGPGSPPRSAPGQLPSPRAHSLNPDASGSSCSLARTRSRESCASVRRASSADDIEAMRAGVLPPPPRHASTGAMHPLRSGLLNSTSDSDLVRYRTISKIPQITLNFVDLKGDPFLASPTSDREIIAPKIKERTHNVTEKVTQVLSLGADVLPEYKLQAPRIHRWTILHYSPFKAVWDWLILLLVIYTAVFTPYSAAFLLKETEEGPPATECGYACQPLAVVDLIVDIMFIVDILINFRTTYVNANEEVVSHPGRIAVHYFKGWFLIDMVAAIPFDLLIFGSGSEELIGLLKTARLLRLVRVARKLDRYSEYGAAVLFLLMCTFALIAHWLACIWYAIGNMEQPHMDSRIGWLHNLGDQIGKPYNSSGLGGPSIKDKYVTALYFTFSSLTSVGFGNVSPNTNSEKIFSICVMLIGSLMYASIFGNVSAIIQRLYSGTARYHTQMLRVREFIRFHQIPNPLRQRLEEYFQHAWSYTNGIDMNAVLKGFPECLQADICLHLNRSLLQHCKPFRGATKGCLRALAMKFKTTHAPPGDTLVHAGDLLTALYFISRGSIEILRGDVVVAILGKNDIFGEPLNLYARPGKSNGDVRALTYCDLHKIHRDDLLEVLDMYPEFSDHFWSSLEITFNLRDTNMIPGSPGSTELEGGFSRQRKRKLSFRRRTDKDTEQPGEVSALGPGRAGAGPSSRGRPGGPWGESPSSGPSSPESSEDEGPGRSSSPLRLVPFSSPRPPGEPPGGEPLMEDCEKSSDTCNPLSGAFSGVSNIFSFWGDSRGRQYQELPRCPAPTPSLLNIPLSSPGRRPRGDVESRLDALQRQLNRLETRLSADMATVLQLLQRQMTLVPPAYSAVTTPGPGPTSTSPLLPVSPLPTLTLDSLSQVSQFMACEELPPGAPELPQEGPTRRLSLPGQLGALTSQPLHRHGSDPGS
Advanced hERG experiments were performed at near-physiological temperature (34° C.) by HEKA EPC10 manual patch system (heka elektronik, EPC10 amplifier). The CHO cells (B′SYS GmbH) stably transfected hERG channel were initially held at −80 mV, depolarized to voltages between −40 mV (100 ms) to 20 mV (500 ms) to activate the hERG outward currents, and then repolarized to −40 mV (500 ms) to record the hERG tail currents, with an interpulse interval of 15s. The recording environment included: Extracellular solution (in mM): 150 NaCl, 4 KCl, 1.2 CaCl2), 1 MgCl2 and 10 HEPES; pH adjusted to 7.2-7.4 with 5 M NaOH; Intracellular solution (in mM): 125 KCl, 10 NaCl, 5 EGTA, 10 HEPES, 0.1 Na2GTP and 5 MgATP; pH adjusted to 7.2 with 1 M KOH. Current inhibitions in the presence of more than 4 concentrations in quadruplicate were used to fit hERG IC50 by Graphpad prism V8.0.
On the technique in general: hERG is a cardiac potassium channel; its block is linked to QT prolongation.

Sequence of WT KRAS-BRAF complex (P01116-2 whole entry, looked up): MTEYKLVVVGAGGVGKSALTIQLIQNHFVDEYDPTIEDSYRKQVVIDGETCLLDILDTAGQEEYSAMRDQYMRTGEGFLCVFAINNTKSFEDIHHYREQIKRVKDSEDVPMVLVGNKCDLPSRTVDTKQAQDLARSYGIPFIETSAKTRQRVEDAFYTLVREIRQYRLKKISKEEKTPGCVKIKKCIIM
Sequence of WT KRAS-BRAF complex (P62937 whole entry, looked up): as the sequence (P62937 whole entry, looked up) above
Sequence of KRAS G12V-BRAF complex (P01116-2 other isoform, or with tags, fused parts or gaps G12V): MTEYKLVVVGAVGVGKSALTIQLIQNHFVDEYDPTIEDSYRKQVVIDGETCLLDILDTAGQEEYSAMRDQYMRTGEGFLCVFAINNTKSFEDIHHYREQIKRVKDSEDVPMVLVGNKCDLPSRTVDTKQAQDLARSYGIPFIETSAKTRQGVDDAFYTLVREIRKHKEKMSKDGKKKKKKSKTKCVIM
Sequence of KRAS G12V-BRAF complex (P62937 whole entry): as the sequence (P62937 whole entry, looked up) above
Sequence of WT NRAS-BRAF complex (P01111 whole entry, looked up): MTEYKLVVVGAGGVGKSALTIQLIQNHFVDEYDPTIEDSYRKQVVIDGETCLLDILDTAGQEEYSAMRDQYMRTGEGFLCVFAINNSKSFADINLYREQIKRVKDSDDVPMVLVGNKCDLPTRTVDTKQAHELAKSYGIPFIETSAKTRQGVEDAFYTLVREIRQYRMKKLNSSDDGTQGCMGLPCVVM
Sequence of WT NRAS-BRAF complex (P62937 whole entry, looked up): as the sequence (P62937 whole entry, looked up) above

In the case of `CCn1c(-c2cc(N3CCN(C)CC3)cnc2[C@H](C)OC)c2c3cc(ccc31)-c1csc(n1)C[C@H](NC(=O)[C@H]1[C@H](C)[C@@H]1C)C(=O)N1CCC[C@H](N1)C(=O)OCC(C)(C)C2` [Example A252, reference compound], the 50% inhibitory concentration (IC50) on WT NRAS-BRAF complex was 19 nM; against KRAS G12V-BRAF complex, 9 nM; against WT KRAS-BRAF complex, 18 nM; against WT HRAS-BRAF complex, 23 nM; against hERG potassium channel, 11000 nM. This compound also registered a clearance in data set [1] (iv, 3 mg/kg) of 37.8 mL/min/kg. In data set [1] (po, 30 mg/kg), this compound had an AUC(0-t) of 14600 ng·h/mL. For the same compound, the Cmax in data set [1] (po, 30 mg/kg, po, read-out: Cmax) came out at 2440 ng/mL. For the same compound, the “Hepatic clearance (Human)” value in the data set with human hepatocytes is given as 9.2 mL/min/kg. The compound also showed a concentration for an effect of 20% (IC20) against hERG potassium channel (human, CHO cells stably transfected with hERG channel) of 3000 nM.

(Values after patent US20240417410A1, “TRICYCLIC COMPOUNDS FOR THE TREATMENT OF CANCER” (Hoffmann-La Roche Inc., priority 2023, published 2024).)
